The record followed here is US8536187B2 (Gilead Sciences, Inc., priority 2008, dated 2013).

Series [1] in a line: CC50 assay (CellTiter-Glo) in Huh-7 HCV replicon cells. It counts as cell-based. Particulars: human. The procedure, abridged: (§1)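 Cytotoxicity (CC50) read by CellTiter-Glo luminescence after 10 min, and antiviral EC50 by luciferase signal after 30 min lysis with substrate, both at room temperature. Preceding step: 3-day exposure of 6000 Huh-7 HCV replicon cells per well to compound dilution series at 37° C, 5% CO2, in 0.5% DMSO.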

In series [2] the test system is HCV replicon in human hepatoma Huh-7 cell line. Kind of series: Anti-HCV replicon assay, EC50 (luciferase luminescence). It counts as cell-based. Particulars: Hepatitis C virus, Huh-7, 72 h. The procedure, abridged:
as §1
For orientation: Replicon systems follow genome replication, usually without infectious particles.

By CC50 is commonly meant the concentration giving 50% cytotoxicity. Read a low CC50 as greater toxicity to the cells. Broadly, the EC50 is the concentration at which the effect is half-maximal.

Consider `C[C@@H](Nc1nc(OC2CCC2)c2nc(-c3cccc(S(C)(=O)=O)c3)ccc2n1)c1ccc(S(N)(=O)=O)cc1` [Example 200, 4-((R)-1-(4-cyclobutoxy-6-(3-(methylsulfonyl)phenyl)pyrido [3,2-d]pyrimidin-2-ylamino)ethyl)benzenesulfonamide], for which the CC50 at 3 days in series [1] (Table 2, 3 days incubation) was more than 10 µM. In addition, the EC50 in series [2] fell in the range of 0.1 to 0.25 µM.
In the same order, the values of `FC(F)(F)CNc1nc(NCc2ccc(-n3cncn3)cc2)nc2ccc(-c3cnc(OC4CC4)nc3)nc12` [Example 253, N^2-(4-(1H-1,2,4-triazol-1-yl)benzyl)-6-(2-cyclopropoxy-pyrimidin-5-yl)-N^4-(2,2,2-trifluoroethyl)pyrido[3,2-d] pyrimidine-2,4-diamine] are more than 10 µM and less than 0.1 µM.
In the same order, the values of `N#Cc1cc(F)ccc1-c1ccc2nc(NCc3cc(C(F)(F)F)cc(S(N)(=O)=O)c3)nc(NC3(C(F)(F)F)CC3)c2n1` [Example 99, 3-((6-(2-cyano-4-fluorophenyl)-4-(1-(trifluoromethyl)cyclopropyl-amino)pyrido[3,2-d]pyrimidin-2-ylamino)methyl)-5-(trifluoro-methyl)benzenesulfonamide] are 1 to 10 µM and less than 0.1 µM.
For `COCc1ccc(-c2ccc3nc(NCc4ccc(S(N)(=O)=O)cc4)nc(NC4(C(F)(F)F)CC4)c3n2)cc1S(C)(=O)=O` [Example 30, 4-{[6-(3-methanesulfonyl-4-methoxymethylphenyl)-4-(1-trifluoromethyl-cyclopropylamino)-pyrido[3,2-d]pyrimidin-2-ylamino]-methyl}-benzenesulfonamide] the same measures were more than 10 µM and less than 0.1 µM.
In turn, `COc1ccc(-c2ccc3nc(NCc4cccc(-n5cncn5)c4)nc(NCC(F)(F)F)c3n2)cc1S(C)(=O)=O` [Example 20] gave a CC50 at 3 days in series [1] (Table 1, 3 days incubation) of more than 25 µM. The compound also had a half-maximal effective concentration (EC50) in series [2] of less than 0.1 µM.
In series [1] (Table 2, 3 days incubation), `CS(=O)(=O)c1cccc(CNc2nc(NC3(C(F)(F)F)CC3)c3nc(-c4ccc(N5CCNC5=O)cc4)ccc3n2)c1` [Example 111, 1-(4-(2-(3-(methylsulfonyl)benzylamino)-4-(1-(trifluoromethyl)cyclopropyl-amino)pyrido[3,2-d]pyrimidin-6-yl)phenyl)imidazolidin-2-one] registered a CC50 at 3 days of 1 to 10 µM. In series [2], this compound returned an EC50 of less than 0.1 µM.
For `NS(=O)(=O)c1cc(CNc2nc(NC3(C(F)(F)F)CC3)c3nc(-c4ccc(F)cc4)ccc3n2)ccc1C(F)(F)F` [Example 118, 5-((6-(4-fluorophenyl)-4-(1-(trifluoromethyl)cyclopropyl-amino)pyrido[3,2-d]pyrimidin-2-ylamino)methyl)-2-(trifluoro-methyl)benzenesulfonamide] the same measures were more than 10 µM and 0.25 to 2 µM.
In series [1] (Table 2, 3 days incubation), `CS(=O)(=O)c1cccc(-c2ccc3nc(NCc4ccc(-n5cccn5)cc4)nc(NCC(F)(F)F)c3n2)c1` [Example 167, N^2-(4-(1H-pyrazol-1-yl)benzyl)-6-(3-(methylsulfonyl)phenyl)-N^4-(2,2,2-trifluoroethyl)pyrido [3,2-d]pyrimidine-2,4-diamine] gave a CC50 at 3 days of more than 10 µM. The EC50 in series [2] was less than 0.1 µM.
For `C[C@@H](Nc1nc(NCC(F)(F)F)c2nc(-c3ccc(Cl)c(S(C)(=O)=O)c3)ccc2n1)c1ccc(S(N)(=O)=O)cc1` [Example 155, 4-((R)-1-(6-(4-chloro-3-(methylsulfonyl)phenyl)-4-(2,2,2-trifluoroethylamino)pyrido[3,2-d]pyrimidin-2-ylamino)ethyl)benzene-sulfonamide] the same measures were 1 to 10 µM and less than 0.1 µM.
`C[C@@H](Nc1nc(NC2(C(F)(F)F)CC2)c2nc(-c3cccc(S(C)(=O)=O)c3)ccc2n1)c1ccc(-n2cncn2)cc1` [Example 47, N^2-((R)-1-(4-(1H-1,2,4-triazol-1-yl)phenyl)ethyl)-6-(3-(methylsulfonyl)phenyl)-N^4-(1-(trifluoromethyl)cyclopropyl) pyrido[3,2-d]pyrimidine-2,4-diamine] yielded a CC50 at 3 days in series [1] (Table 2, 3 days incubation) of 1 to 10 µM. This compound also returned an EC50 in series [2] of less than 0.1 µM.
In the same order, the values of `CCOc1nc(NCc2ccc(-n3cncn3)cc2)nc2ccc(-c3cccc(S(C)(=O)=O)c3)nc12` [Example 190, N-(4-(1H-1,2,4-triazol-1-yl)benzyl)-4-ethoxy-6-(3-(methylsulfonyl)phenyl)pyrido [3,2-d]pyrimidin-2-amine] are more than 10 µM and less than 0.1 µM.
On to `CS(=O)(=O)c1cc(-c2ccc3nc(NCc4ccc(S(N)(=O)=O)cc4)nc(NCC(F)(F)F)c3n2)ccc1F` [Example 21, 4-{[6-(4-Fluoro-3-methanesulfonyl-phenyl)-4-(2,2,2-trifluoro-ethylamino)-pyrido[3,2-d]pyrimidin-2-ylamino]-methyl}-benzenesulfonamide], for which the CC50 at 3 days in series [1] (Table 1, 3 days incubation) was more than 25 µM. In series [2], this compound had a concentration giving a half-maximal response (EC50) of less than 0.1 µM.
As for `CC[C@@H](Nc1nc(NCC(F)(F)F)c2nc(-c3ccc(F)cc3)ccc2n1)c1ccccc1S(N)(=O)=O` [Example 11, (R)-2-{1-[6-(4-Fluoro-phenyl)-4-(2,2,2-trifluoro-ethylamino)-pyrido[3,2-d]pyrimidin-2-ylamino]-propyl}-benzenesulfonamide], the CC50 at 3 days in series [1] (Table 1, 3 days incubation) is more than 25 µM. The same compound returned an EC50 in series [2] of 0.25 to 2 µM.
In series [1] (Table 2, 3 days incubation), `C[C@@H](Nc1nc(NC2(C(F)(F)F)CC2)c2nc(-c3ccc(F)nc3)ccc2n1)c1ccc(S(N)(=O)=O)cc1` [Example 79, 4-((R)-1-(6-(6-fluoropyridin-3-yl)-4-(1-(trifluoromethyl)cyclopropylamino)pyrido[3,2-d]pyrimidin-2-ylamino)ethyl) benzenesulfonamide] came in with a CC50 at 3 days of more than 10 µM. In addition, the EC50 in series [2] is less than 0.1 µM.
Compound `CC(C)Oc1ccc(-c2ccc3nc(NCc4ccc(-n5cncn5)cc4)nc(NCC(F)(F)F)c3n2)cn1` [Example 240, N^2-(4-(1H-1,2,4-triazol-1-yl)benzyl)-6-(6-isopropoxy-pyridin-3-yl)-N^4-(2,2,2-trifluoroethyl)pyrido[3,2-d] pyrimidine-2,4-diamine] registered a CC50 at 3 days in series [1] (Table 2, 3 days incubation) of more than 10 µM. In addition, in series [2], the EC50 was less than 0.1 µM.
For `CS(=O)(=O)c1cccc(-c2ccc3nc(NCc4ccc(-n5cncn5)cc4)nc(OC4CC4)c3n2)c1` [Example 188, N-(4-(1H-1,2,4-triazol-1-yl)benzyl)-4-cyclopropoxy-6-(3-(methylsulfonyl)phenyl) pyrido[3,2-d]pyrimidin-2-amine] the same measures were more than 10 µM and less than 0.1 µM.
For `COc1ccc(-c2ccc3nc(NCc4ccc(F)c(F)c4)nc(NCC(F)(F)F)c3n2)cc1S(N)(=O)=O` [Example 234, 5-(2-(3,4-difluorobenzylamino)-4-(2,2,2-trifluoroethylamino)pyrido[3,2-d]pyrimidin-6-yl)-2-methoxybenzenesulfonamide] the same measures were more than 10 µM and less than 0.1 µM.
In the same order, the values of `CC(C)Oc1ccc(-c2ccc3nc(N[C@H](C)Cn4cncn4)nc(NCC(F)(F)F)c3n2)cn1` [Example 241, N^2-((R)-1-(1H-1,2,4-triazol-1-yl)propan-2-yl)-6-(6-isopropoxypyridin-3-yl)-N^4-(2,2,2-trifluoroethyl)pyrido [3,2-d]pyrimidine-2,4-diamine] are more than 10 µM and less than 0.1 µM.
Turning to `C[C@H](Nc1nc(NCc2ccc(-n3cncn3)cc2)nc2ccc(-c3cccc(S(C)(=O)=O)c3)nc12)C(F)(F)F` [Example 187, N^2-(4-(1H-1,2,4-triazol-1-yl)benzyl)-6-(3-(methylsulfonyl)phenyl)-N^4-((S)-1,1,1-trifluoropropan-2-yl)pyrido [3,2-d]pyrimidine-2,4-diamine], in series [1] (Table 2, 3 days incubation), the CC50 at 3 days is more than 10 µM. This compound returned an EC50 in series [2] of less than 0.1 µM.
For `C[C@@H](Nc1nc(NC2(C(F)(F)F)CC2)c2nc(-c3ccc(N)nc3)ccc2n1)c1ccc(-n2cncn2)cc1` [Example 84, N^2-((R)-1-(4-(1H-1,2,4-triazol-1-yl)phenyl)ethyl)-6-(6-aminopyridin-3-yl)-N^4-(1-(trifluoromethyl)cyclopropyl) pyrido[3,2-d]pyrimidine-2,4-diamine] the same measures were 1 to 10 µM and less than 0.1 µM.
In series [1] (Table 1, 3 days incubation), `NS(=O)(=O)c1cc(CNc2nc(NCC(F)(F)F)c3nc(-c4ccc(F)cc4)ccc3n2)ccc1F` [Example 7, 2-Fluoro-5-{[6-(4-fluoro-phenyl)-4-(2,2,2-trifluoro-ethylamino)-pyrido[3,2-d]pyrimidin-2-ylamino]-methyl}-benzenesulfonamide] yielded a CC50 at 3 days of 10 to 25 µM. Besides, in series [2], the EC50 was less than 0.1 µM.
In series [1] (Table 2, 3 days incubation), `COCC#Cc1ccc2nc(N[C@H](C)c3ccc(S(N)(=O)=O)cc3)nc(NCC(F)(F)F)c2n1` [Example 277, (R)-4-(1-(6-(3-methoxyprop-1-ynyl)-4-(2,2,2-trifluoroethyl-amino)pyrido[3,2-d]pyrimidin-2-ylamino)ethyl)benzene-sulfonamide] returned a CC50 at 3 days of more than 10 µM. Further, the concentration giving a half-maximal response (EC50) in series [2] is less than 0.1 µM.
For `C=Cc1ccc2nc(N[C@H](C)c3ccc(S(N)(=O)=O)cc3)nc(NCC(F)(F)F)c2n1` [Example 312, (R)-4-(1-(4-(2,2,2-trifluoro-ethylamino)-6-vinylpyrido [3,2-d]pyrimidin-2-ylamino)ethyl)benzenesulfonamide] the same measures were more than 10 µM and 0.1 to 0.25 µM.
In series [1] (Table 2, 3 days incubation), `C#Cc1ccc2nc(N[C@H](C)c3ccc(S(N)(=O)=O)cc3)nc(O[C@@H]3C[C@@H]4C[C@@H]4C3)c2n1` [Example 314, 4-((R)-1-(4-((1S,3r,5R)-bicyclo[3.1.0]hexan-3-yloxy)-6-ethynylpyrido[3,2-d]pyrimidin-2-ylamino)ethyl) benzenesulfonamide] yielded a CC50 at 3 days of more than 10 µM. In series [2], this compound came in with an EC50 of less than 0.1 µM.
`Cc1ccc(-c2ccc3nc(NCc4ccc(-n5cncn5)cc4)nc(NCC(F)(F)F)c3n2)cc1S(C)(=O)=O` [Example 179, N^2-(4-(1H-1,2,4-triazol-1-yl)benzyl)-6-(4-methyl-3-(methylsulfonyl)phenyl)-N^4-(2,2,2-trifluoroethyl)pyrido [3,2-d]pyrimidine-2,4-diamine]: the CC50 at 3 days in series [1] (Table 2, 3 days incubation) is more than 10 µM. The compound also came in with an EC50 in series [2] of less than 0.1 µM.
